The test addresses T1, human GPR84 receptor (Homo sapiens, UniProt Q9NQS5).
T1 construct: host or cells: HEK293, transiently transfected
Briefly: Gαi biosensor BRET assay (GPR84 antagonism vs agonist ZQ-16). The class given is cell-based. As to conditions: HEK293 cells, 200 nmol/L agonist ZQ-16; for IC50: Gαi biosensor BRET assay; for inhibition at 10 µM: tested at 10 μM (concentration code D); for inhibition at 2 µM: tested at 2 μM (concentration code A). From the text:
Background—The following assays can be used for determination of GPR84 activation in living HEK293 cells. The Gai BRET biosensor (Gagnon et al., 2018; Gales et al., 2006. Nat Struct Mol Biol. 13, 778-86; Saulieres et al., 2012. Nat Chem Biol. 8, 622-30) allows to directly monitor GPR84-mediated activation of Gai. The Gai biosensor consists of a Rluc8-tagged Gai2 subunit, a GFP10-tagged Gy2 subunit, and an untagged GB1. Agonist stimulation and GPR84 activation triggers a physical separation between the RLuc8-Gai donor and the GFP10-Gy2 acceptor, resulting in a decrease in BRET signal whose amplitude is correlated to ligand efficacy (Gales et al., 2006). Moreover, signaling functions of GPCRs are tightly regulated by endocytosis, the targeting of receptors to endosomes and their sorting to lysosomes or recycling to the plasma membrane. The early endosomes (EEs) trafficking assay (Namkung et al., 2016. Nat Commun. 7, 12178) uses Rluc8-tagged GPR84 and Renilla GFP (rGFP) attached to the FYVE domain from human endofin/zinc finger FYVE domain-containing protein 16, which binds phosphatidylinositol 3-phosphate in EEs. Agonist stimulation of GPR84-Rluc8 leads to trafficking of the receptor to EEs, and ensuing increase of the donor concentration relative to the rGFP-FYVE acceptor anchored in the same cellular compartment, and thus results in an increase in BRET signal.
Plasmids—The cDNA clones for human GPR84 receptor, human Gai2, GB1, and Gy2 were obtained from the cDNA Resource Center (www.cdna.org). GFP10 (F64L, S147P, S202F and H231L variant of Aequorea victoria Green Fluorescent Protein) gBlocks gene fragments (Integrated DNA Technologies, IA) and linker were inserted in frame at the N-terminus of human Gy2. Rluc8 (A55T, C124A, S130A, K136R, A143M, M185V, M253L, and S287L variant of the Renilla reniformis luciferase) gBlocks gene fragment was inserted with linkers in frame in between residues 91 and 92 of Gai2 or at the C-terminus of GPR84. The FYVE domain from human endofin (residues Q739 to K806) attached in frame at the C terminus of a humanized Renilla GFP (rGFP), were synthesized as gBlocks gene fragments.
Bioluminescence Resonance Energy Transfer (BRET) Measurement-HEK293 cells were transfected with GPR84-Rluc8 and rGFP-FYVE for the EEs trafficking biosensor or with GPR84, Gai2-Rluc8, GFP10-Gy2, and GB1 for the Ga; biosensor. The following day, transiently transfected cells were seeded in 96-well white clear bottom microplates coated with poly-D-lysine and left in culture for 24 hours. Cells were washed once with Tyrode's buffer (140 mmol/L NaCl, 1 mmol/L CaCl2), 2.7 mmol/L KCl, 0.49 mmol/L MgCl2, 0.37 mmol/L NaH2PO4, 5.6 mmol/L glucose, 12 mmol/L NaHCO3, and 25 mmol/L HEPES, pH 7.5) before performing assays in Tyrode's buffer. Test compounds were incubated with cells for 5 (Gai) or 15 (EEs) minutes at 37° C. before addition of 200 nmol/L of the GPR84 agonist ZQ-16 (2-(Hexylthio)-6-hydroxy-4 (3H)-pyrimidinone) for 5 minutes at room temperature (Gai) or 30 minutes at 37° C. (EEs). The Rluc8 substrate coelenterazine 400A (Prolume, Lakeside, A Z) was added at a final concentration of 5 μmol/L and BRET readings were collected using an Infinite M1000 microplate reader (Tecan, Morrisville, N C). BRET2 readings between Rluc8 and GFP10 or rGFP were collected by sequential integration of the signals detected in the 370 to 450 nm (Rluc8) and 510 to 540 nm (GFP10, rGFP) windows. The BRET signal was calculated as the ratio of light emitted by acceptor (GFP10, rGFP) over the light emitted by donor (Rluc8). The values were corrected to net BRET by subtracting the background BRET signal obtained in cells transfected with Rluc8 constructs alone. Ligand-promoted net BRET values were calculated by subtracting vehicle-induced net BRET from ligand-induced net BRET.

T1 sequence (Q9NQS5 whole entry): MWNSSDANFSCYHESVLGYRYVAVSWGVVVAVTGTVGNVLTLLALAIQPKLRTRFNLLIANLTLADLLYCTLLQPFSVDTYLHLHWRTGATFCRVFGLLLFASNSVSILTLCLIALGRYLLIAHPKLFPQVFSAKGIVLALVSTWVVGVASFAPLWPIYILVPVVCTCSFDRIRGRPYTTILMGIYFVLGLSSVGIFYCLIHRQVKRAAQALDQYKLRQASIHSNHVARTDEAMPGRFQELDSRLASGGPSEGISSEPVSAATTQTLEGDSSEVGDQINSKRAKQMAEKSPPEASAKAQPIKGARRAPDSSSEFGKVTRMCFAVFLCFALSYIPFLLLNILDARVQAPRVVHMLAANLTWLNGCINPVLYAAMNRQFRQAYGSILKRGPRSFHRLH

The IC50 is the midpoint of a concentration-inhibition curve. A high value points to weaker potency. What is called inhibition is the drop in the measured response relative to a control, in per cent. `Cc1cc(OCc2cnc(NS(C)(=O)=O)nc2)cc(=O)n1[C@H](C)c1ccc(C#CC2CC2)cc1` [Compound I-81] displayed an IC50 of no more than 300 nM and an inhibition at 10 µM greater than 75%.

Consider `Cc1cc(OCC(=O)NC2CN(C)C2)cc(=O)n1[C@H](C)c1ccc(C#CC2CC2)cc1` [Compound I-58], for which the inhibition at 10 µM fell in the range of 50 to 75%.

In the case of `Cc1cc(OCC(=O)N2CC(F)(F)C2)cc(=O)n1[C@H](C)c1ccc(C#CC2CC2)cc1` [Compound I-7], the IC50 lay in the range of 300 to 1000 nM and the inhibition at 10 µM is greater than 75%.

Turning to `Cc1cc(OCc2nnn(C)n2)cc(=O)n1[C@H](C)c1ccc(C#CC2CC2)cc1` [Compound I-261], the IC50 is 300 to 1000 nM and the inhibition at 2 µM was greater than 75%.

Compound `Cc1cc(OCc2cnc(C3CC3)cn2)cc(=O)n1C(C)c1ccc(OCC2CCCCO2)c(F)c1` (stereo not shown) [Compound I-13] had an inhibition at 10 µM of less than 25%.

`Cc1cc(OCC(=O)N(C)C)cc(=O)n1[C@H](C)c1ccc(C#CC2CC2)c(Cl)c1` [Compound I-29] registered an IC50 of no more than 300 nM and an inhibition at 2 µM greater than 75%.

`Cc1cc(OCS(=O)(=O)N(C)C)cc(=O)n1[C@H](C)c1ccc(C#CC2CC2)cc1` [Compound I-41] returned an inhibition at 10 µM of 50 to 75%.

For the compound `Cc1cc(OCC(=O)N2CC(C)(O)C2)cc(=O)n1[C@H](C)c1ccc(C#CC2CC2)cc1` [Compound I-345], the IC50 is no more than 300 nM and the inhibition at 10 µM was greater than 75%.

Take `[2H]C1(C#Cc2ccc([C@@H](C)n3c(C)cc(OCC(=O)N(C)C)cc3=O)cc2)CC1` [Compound I-73]: the IC50 was no more than 300 nM and the inhibition at 2 µM is greater than 75%.

Take `Cc1cc(OCC(=O)N2CCC(F)(F)C2)cc(=O)n1[C@H](C)c1ccc(C#CC2CC2)cc1` [Compound I-257]: the half-inhibitory concentration (IC50) was no more than 300 nM and the inhibition at 2 µM was greater than 75%.

As for `Cc1cc(OCC(O)C(C)C)cc(=O)n1[C@H](C)c1ccc(C#CC2CC2)cc1` (stereo partly shown) [Compound I-274], the inhibition at 10 µM was greater than 75%.

`Cc1cc(OCC(=O)N(C)C)cc(=O)n1[C@H](C)c1ccc(C#CC2CC2(F)F)cc1` (stereo partly shown) [Compound I-63]: the IC50 was no more than 300 nM and the inhibition at 10 µM is greater than 75%.

For `Cc1cc(OCC(=O)N2CC[C@H](S(=O)(=O)N(C)C)C2)cc(=O)n1[C@H](C)c1ccc(C#CC2CC2)cc1` [Compound I-333], the IC50 was in the range of 1000 to 3000 nM and the inhibition at 10 µM is greater than 75%.

For `Cc1cc(OCC(=O)NC(C)C)cc(=O)n1[C@H](C)c1ccc(C#CC2CC2)cc1` [Compound I-54], the inhibition at 10 µM was greater than 75%.

As to `Cc1cc(OCC(=O)N2CCC3(CC2)CN(C)C3)cc(=O)n1[C@H](C)c1ccc(C#CC2CC2)cc1` [Compound I-203], the inhibition at 10 µM lay within 50 to 75%.

`Cc1cc(OCC(=O)N2CCOCC2)cc(=O)n1[C@H](C)c1ccc(C#CC2CC2)cc1` [Compound I-3] registered a 50% inhibitory concentration (IC50) of no more than 300 nM and an inhibition at 2 µM greater than 75%.

Under “tested at 5.4 μM (concentration code C)”, `C#Cc1ccc([C@@H](C)n2c(C)cc(OCC(=O)N(C)C)cc2=O)cc1` [Compound I-295] showed an inhibition at 5.4 µM greater than 75%.

In turn, `Cc1cc(OCC(=O)N(C)CC(=O)O)cc(=O)n1[C@H](C)c1ccc(C#CC2CC2)cc1` [Compound I-350] yielded an inhibition at 2 µM greater than 75%.

The compound `Cc1cc(OCc2nnnn2C)cc(=O)n1[C@H](C)c1ccc(C#CC2CC2)cc1` [Compound I-260] returned an IC50 of no more than 300 nM and an inhibition at 2 µM greater than 75%.

Turning to `Cc1cc(OCC(=O)N(C)C2CC(F)(F)C2)cc(=O)n1[C@H](C)c1ccc(C#CC2CC2)cc1` [Compound I-67], the half-inhibitory concentration (IC50) is 300 to 1000 nM and the inhibition at 10 µM is greater than 75%.

In turn, `Cc1cc(OCC(=O)N2CCC[C@H]2C2CC2)cc(=O)n1[C@H](C)c1ccc(C#CC2CC2)cc1` [Compound I-308] had an IC50 of 300 to 1000 nM and an inhibition at 2 µM greater than 75%.

For the compound `COC(COc1cc(C)n([C@H](C)c2ccc(C#CC3CC3)cc2)c(=O)c1)C(C)C` (stereo partly shown) [Compound I-275], the inhibition at 10 µM was greater than 75%.

Turning to `Cc1cc(OCC(=O)N2CC[C@@H](NS(C)(=O)=O)C2)cc(=O)n1[C@H](C)c1ccc(C#CC2CC2)cc1` [Compound I-336], the inhibition at 2 µM was greater than 75%.

In the case of `CCN(C)C(=O)COc1cc(C)n([C@H](C)c2ccc(C#CC3CC3)cc2)c(=O)c1` [Compound I-267], the IC50 is no more than 300 nM and the inhibition at 2 µM was greater than 75%.

In turn, `Cc1cc(OCC(=O)N2CC3CCC2CO3)cc(=O)n1[C@H](C)c1ccc(C#CC2CC2)cc1` (stereo partly shown) [Compound I-326] returned an IC50 of 1000 to 3000 nM and an inhibition at 10 µM greater than 75%.

`Cc1cc(OCC(=O)N(C)C)cc(=O)n1[C@H](C)c1ccc(-c2nnn[nH]2)cc1` [Compound I-266] gave an inhibition at 10 µM of less than 25%.

In turn, `Cc1cc(OCC(=O)N2CC(F)(F)C2)cc(=O)n1[C@H](C)c1ccc(C#CC2CC2)c(F)c1` [Compound I-24] had a half-inhibitory concentration (IC50) of 300 to 1000 nM and an inhibition at 10 µM greater than 75%.

Compound `CC(=O)C(C)(C)Oc1cc(C)n([C@H](C)c2ccc(C#CC3CC3)cc2)c(=O)c1` [Compound I-271] registered an inhibition at 10 µM of 25 to 50%.

As for `Cc1cc(OCC(=O)N(C)C)cc(=O)n1[C@H](C)c1ccc(C#CC2CC2(F)F)c(F)c1` (single isomer, unassigned) [Compound I-83], the IC50 is no more than 300 nM and the inhibition at 2 µM is greater than 75%.

Take `Cc1nc(OCC(=O)N2CCCC2)cc(=O)n1[C@H](C)c1ccc(C#CC2CC2)cc1` [Compound I-235]: the IC50 is no more than 300 nM and the inhibition at 2 µM is greater than 75%.

For the compound `Cc1cc(OCC(=O)N2CCC[C@H]2C(F)(F)F)cc(=O)n1[C@H](C)c1ccc(C#CC2CC2)cc1` [Compound I-255], the IC50 was in the range of 300 to 1000 nM and the inhibition at 2 µM is greater than 75%.

Regarding `Cc1cc(OCC(=O)C(C)C)cc(=O)n1[C@H](C)c1ccc(C#CC2CC2)cc1` [Compound I-270], the concentration for half-maximal inhibition (IC50) was no more than 300 nM and the inhibition at 2 µM was greater than 75%.

The compound `Cc1cc(OCS(=O)(=O)N(C)C)cc(=O)n1[C@H](C)c1ccc(C#CC2CC2)c(F)c1` [Compound I-37, (R)-1-(1-(1-(4-(cyclopropylethynyl)-3-fluorophenyl)ethyl)-6-methyl-2-oxo-1,2-dihydropyridin-4-yloxy)-N,N-dimethylmethanesulfonamide] yielded an inhibition at 10 µM of 50 to 75%.

As for `Cc1cc(OCC(=O)N(C)C)cc(=O)n1[C@H](C)c1ccc(C#CC2(C)CC2)cc1` [Compound I-80], the IC50 is no more than 300 nM and the inhibition at 10 µM is greater than 75%.

As for `Cc1cc(OCC(=O)N2CCC[C@@H]2C2CC2)cc(=O)n1[C@H](C)c1ccc(C#CC2CC2)cc1` [Compound I-307], the IC50 was no more than 300 nM and the inhibition at 2 µM was greater than 75%.

Regarding `Cc1cc(OCC(=O)N2CCC[C@@H]2C#N)cc(=O)n1[C@H](C)c1ccc(C#CC2CC2)cc1` [Compound I-306], the IC50 fell in the range of 300 to 1000 nM and the inhibition at 2 µM is greater than 75%.

As to `Cc1cc(OCC(=O)N(C)C)cc(=O)n1C(C)c1ccc(C#CC2CC2)cc1Cl` (stereo not shown) [Compound I-262], the inhibition at 10 µM is greater than 75%.

In turn, `Cc1nc(OCC(=O)N(C)C)cc(=O)n1[C@@H](C)c1ccc(C#CC2CC2)cc1` [Compound I-218] yielded an inhibition at 10 µM of less than 25%.

Source of the values: patent US20260055117A1, “SUBSTITUTED PYRIDONE GPR84 ANTAGONISTS AND USES THEREOF” (Liminal BioSciences Limited, priority 2022, published 2026).
